{
  "source": "patent US11807852B2",
  "about": "“Compositions and methods for reactivating latent immunodeficiency virus” (The J. David Gladstone Institutes, a testamentary trust …, priority 2014, dated 2023)",
  "key": {"[1]": {"test_system": "latent HIV-1 in CD4+ T cells from HIV-1-infected individuals", "test": "Intracellular HIV-1 mRNA (ddPCR) in CD4+ T cells from HIV-1-infected individuals treated ex vivo", "format": "cell-based", "source_text": "Four aviremic HIV-1-infected individuals were recruited from the SCOPE cohorts at the University of California. San Francisco. Table 2 details the characteristics of the study participants.\nPeripheral blood mononuclear cells (PBMCs) from whole blood or continuous flow centrifugation leukapheresis product were purified using density centrifugation on a Ficoll-Hypaque gradient. Resting CD4^+ lymphocytes were enriched by negative depletion with an EasySepHuman CD4^+ T Cell Isolation Kit (Stemcell). Cells were cultured in RPMI medium supplemented with 10% fetal bovine serum, penicillin/streptomycin and 5 μM saquinavir. Five million resting CD4′ lymphocytes were stimulated with latency-reversing agents (LRAs) at the indicated concentrations (20-500 nM AZ391, 100 nM JQ1, 25 μl/1×10^6 T cells αCD3/αCD28 Dynabeads (Life Technologies) for 48 hours. After LRA treatment, cells were collected, lysed and total RNA was isolated with an RNeasy kit (Quiagen). A Superscript III One-Step RT-PCR system (Life Technologies) was used to generate and pre-amplify cell-associated viral mRNA. Reaction mixes contained 15 μl of a PCR mix containing reaction mix, Superscript III, primers (900 nM final concentration) and 10 μl purified RNA. Pre-amplification was carried out using the following steps: reverse transcription at 50° C. for 30 min, denaturation at 95° C. for 2 min, 10 cycles of amplification (94° C. 15 s, 55° C. 30 s, 68° C. 5 min) on a GeneAmp PCR system 9700 (Thermo Fisher). Subsequently, droplet digital PCR (ddPCR) was applied to quantify pre-amplified cDNA. Each 25 μl ddPCR mix comprised the ddPCR Probe Supermix (no dUTP), 900 nM primers, 250 nM probe, and 4 μl cDNA. The following cycling conditions were used: 10 minutes at 95° C. […] Finally, samples were amplified on a BioRad C1000 Thermocycler and analyzed using a BioRad QX100 ddPCR Reader. […]\nNext, AZ391 was tested in CD4^+ T cells from HIV-1-infected individuals on suppressive ART. […] After 48 hours, levels of intracellular HIV-1 mRNA were measured by droplet digital RT-PCR using a previously published primer/probe set (Laird et al., 2015). […]"}, "[2]": {"settings": "cited from earlier work"}, "[3]": {"target": "SMYD2 (Homo sapiens, UniProt Q9NRG4)", "sequence (Q9NRG4 whole entry)": "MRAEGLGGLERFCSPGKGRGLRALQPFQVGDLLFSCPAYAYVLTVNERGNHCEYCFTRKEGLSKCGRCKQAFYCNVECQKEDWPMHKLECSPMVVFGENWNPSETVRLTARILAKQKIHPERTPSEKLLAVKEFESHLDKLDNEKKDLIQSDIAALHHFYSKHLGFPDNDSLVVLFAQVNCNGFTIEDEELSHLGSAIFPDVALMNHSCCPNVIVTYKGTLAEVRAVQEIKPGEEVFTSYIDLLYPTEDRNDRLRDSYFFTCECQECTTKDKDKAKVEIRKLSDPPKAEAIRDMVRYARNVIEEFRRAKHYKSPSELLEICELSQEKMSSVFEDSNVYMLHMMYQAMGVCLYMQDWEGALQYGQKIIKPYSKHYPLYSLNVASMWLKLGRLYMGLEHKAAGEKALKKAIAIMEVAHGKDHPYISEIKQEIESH", "test": "In vitro SMYD2 methylation assay of histone H4", "format": "biochemical", "design": "purchased Sigma-Aldrich", "experimental": "In vitro Methylation assays were performed as described (Nishioka et al., 2002). For reactions, 2 gtg of histones (isolated from HEK293T cells), recombinant histone 4 (New England Biolabs), synthetic histone 4 as 1-21 and as 15-24 peptides (Cayman Chemical), or synthetic histone H4 as 1-21 with a K20A mutation (GenScript) were incubated with recombinant WT SMYD2 (Sigma-Aldrich) or SMYD2 Y240F (Active Motif) in a buffer containing 50 mM Tris-HCl, pH 9, 0.01% Tween 20, 2 mM DTT and 1.1 μCi of H3-labeled SAM (Perk-in Elmer) overnight at 30° C. Reaction mixtures were fractionated on 15% SDS-PAGE for proteins or on 10-20% Tris-Tricine gradient gels for peptides (BioRad). After Coomassie staining, gels were treated with Amplify. (GE Healthcare) for 30 min, dried and exposed to hyperfilm (GE Healthcare) overnight."}},
  "data": [
    {"smiles": "N#Cc1cc(C(=O)NCCCN2CCCC2)cc(-c2ccccc2N2CCN(CCc3c[nH]c4ccccc34)CC2)c1", "note": "[AZ391]", "values": [
      {"measurement": "mean increase of intracellular HIV-1 mRNA levels", "setting": "[1]; 500 nM, 48 hours, three additional donors", "value": "1.5-10 fold"},
      {"measurement": "intracellular HIV-1 mRNA, combination effect", "setting": "[1]; combination with JQ1", "value": "no additive or synergistic effects"},
      {"measurement": "intracellular HIV-1 mRNA levels", "setting": "[1]; increasing concentrations (maximal 500 nM), 48 hours, one individual", "value": "increased intracellular HIV-1 mRNA levels in a dose-dependent manner"},
      {"measurement": "cell permeability", "setting": "[2]", "value": "cell-permeable"},
      {"measurement": "methylation of recombinant human histone H4 by SMYD2", "setting": "[3]; full-length histone H4, 3H-SAM autoradiography", "value": "inhibited"},
      {"measurement": "methylation of synthetic histone H4 peptides by SMYD2", "setting": "[3]; peptides aa 1-21 and aa 15-24", "value": "suppressed"}
    ]}
  ]
}
